This is an account of results in patent publication US9034323B2, “Method for control of post-prandial glucose” (Halozyme, Inc., priority 2008, dated 2015).

Like-named read-outs stand apart in the source and are kept apart here.

Series [1] has as its system dispersion of trypan blue dye. The series can be described thus: Trypan blue dye dispersion assay in mice (Example 9). The series is classed as in vivo, NCr nu/nu homozygous mice. The settings on record: for Dye Dispersion Areas: intradermal, trypan blue with 5 Units/mL Humulin insulin, enzyme 10 U/mL (Chondroitinase AC 1 U/mL, Strep lyase 100 U/mL), group mean; for increase in dye dispersion area compared to buffer only: mixed with trypan blue and Humulin insulin.
Description: (§1) The ability of different hyaluronan degrading enzymes to act as a dispersion agent was assessed in vivo. A dispersion assay in mice was used to assess the ability of different hyaluronan degrading enzyme to act as dispersion agents of trypan blue, and also to assess the ability of the enzymes to enhance the efficacy of co-administered insulin in reducing blood glucose levels. The hyaluronan degrading enzymes assayed included rHuPH20, pegylated PH20 (PEG PH20), Hyal 1, Chondroitinase ABC, Chondroitinase AC and Streptomyces hyalurolyticus lyase. […] Both the area of dispersion of the trypan blue and the blood glucose levels were then measured. […] The ability of a low pH buffer (pH 4.5) to act as a dispersion agent also was examined.
(§2) Nine groups of NCr nu/nu homozygous mice, approximately 10 weeks of age and with body weights of 21-25 g, with 3 mice per group, were anesthetized by intraperitoneal injection of ketamine/xylazine (10:1 mixture in saline). […] The dispersion of the trypan blue dye was then measured by a caliper at 2.5, 5, 10, 15 and 20 minutes post injection. The dye dispersion area (mm^2) was calculated by multiplying the longest axis M1 (length of the dye front) and M2 (width of the dye front) by ¼π (M1M2×¼π). The blood glucose levels were measured using a glucometer at 0, 5, 10, 15 and 20 minutes

A further series deals with blood glucose. The series is described as follows: Blood glucose levels in mice after intradermal Humulin insulin with hyaluronan degrading enzymes (Example 9). The series is classed as in vivo, NCr nu/nu homozygous mice. The settings on record: for Blood Glucose Level: group mean.
Series [2] has as its system plasma glucose (glucose infusion rate to maintain 90-110 mg/dL). The series can be described thus: Glucose infusion rate (GIR) pharmacodynamics, Hyperinsulinemic-Euglycemic Clamp (Example 1a). The conditions noted are these: Mean. The series is classed as in vivo, human. On the procedure:
The procedure consisted of initially obtaining the subject's weight and height and measuring the vital signs after resting in a sitting position for 5 minutes. Both arms were placed in heating pads to dilate the veins and IV catheters were then inserted. A catheter was placed into the antecubital vein of one arm for infusion of Dextrose 20% via two separate stop cocks. The other […] catheter was placed into the other arm for sampling of arterialized blood for glucose measurements. The heating pad can be removed from the glucose infusion site, but the retrograde catheter site was maintained at 65° C. An initial blood sample was obtained to measure baseline glucose 30 minutes before injection of the insulin preparations.

On the set-up of series [3]: species or system Yucatan mini pigs. The settings on record: pig, in vivo; for tmax: sc. On the procedure: The pharmacokinetics (PK) of regular insulin, when subcutaneously administered at two different concentrations, both alone and co-administered with rHuPH20, was assessed in the porcine model described in Example 10, above. A multiple dose 4-way crossover design study was conducted to compare the PK of regular insulin at concentrations of 20 and 100 U/mL, when administered alone, to the same two concentrations after co-administration with rHuPH20. In each case, a total of 0.2 U/kg of insulin was administered.
Four test articles were prepared for dosing. […] The Insulin-PH20 U100 test article contained 3.69 mg/mL (100 U/mL) regular insulin (Lot # SIHR107; Diosynth Biotechnologies) and 20 μg/mL (approximately 2400 U/mL) rHuPH20 in 25 mM Tris, 120 mM NaCl, 0.01% Polysorbate 80, pH 7.3.
The group assignment was maintained for cycles 1 and 2.
The serum IRI concentrations were determined for each serum sample by interpolation from a standard curve using StatLIA® assay analysis software (Brendan Technologies, Carlsbad, Calif.). […] These baselines were then subtracted from the actual IRI concentrations measured at each timepoint to determine the baseline-adjusted IRI concentration.
Serum IRI versus time data were modeled by non-compartmental analysis using WinNonlin Professional model 200 (Version 5.2, Pharsight Corp., Mountain View, Calif.) and the PK parameters calculated. […] All analyses were performed using a mixed model with fixed effects for treatment. A compound symmetric covariance matrix among repeated observations for each animal was assumed. Analyses for Cmax and all AUC endpoints were performed using log-transformed values with values of zero replaced by 1 prior to log transformation (zero on the log scale). The time based endpoints were analyzed on the original linear scale.
N=16 pigs unless otherwise noted.

The conditions of series [4]: background, cited from earlier work.
[5] abbreviates: 5 min post injection, intradermal with 5 Units/mL Humulin insulin, enzyme 10 U/mL (Chondroitinase AC 1 U/mL, Strep lyase 100 U/mL).
[6] abbreviates: 10 min post injection, intradermal with 5 Units/mL Humulin insulin, enzyme 10 U/mL (Chondroitinase AC 1 U/mL, Strep lyase 100 U/mL).
[7] abbreviates: 15 min post injection, intradermal with 5 Units/mL Humulin insulin, enzyme 10 U/mL (Chondroitinase AC 1 U/mL, Strep lyase 100 U/mL).
Where [8] appears, read: 20 min post injection, intradermal with 5 Units/mL Humulin insulin, enzyme 10 U/mL (Chondroitinase AC 1 U/mL, Strep lyase 100 U/mL).

Description for blood glucose: as §1, §2

Regarding Chondroitinase ABC, the “Dye Dispersion Areas” value stood at 75.06 mm^2 in series [1] (5 min post injection); 78.60 mm^2 in series [1] (10 min post injection); 81.44 mm^2 in series [1] (15 min post injection); 87.85 mm^2 in series [1] (20 min post injection); 56.85 mm^2 in series [1] ([…] post injection). For the same molecule, the “average dispersion area of trypan blue dye” value is roughly 75 mm^2 in series [1] (5 minutes after injection); roughly 79 mm^2 in series [1] (10 minutes after injection); roughly 81 mm^2 in series [1] (15 minutes after injection); roughly 88 mm^2 in series [1] (20 minutes after injection); “about 57 mm^2” in series [1] ([…] after injection). In addition, the “increase in dye dispersion area compared to buffer only” value in series [1] is on record as “significant increase”. Moreover, the “Blood Glucose Level” value in the series on blood glucose (0 min (prior to injection)) was found to be 129.67 mg/dL; with blood glucose (setting [5]), 123.67 mg/dL; in the series with blood glucose (setting [6]), 65.00 mg/dL; in the series with blood glucose (setting [7]) it was 44.67 mg/dL; in the series with blood glucose (setting [8]), 21.00 mg/dL. Besides, the “reduction of blood glucose levels compared with Humulin insulin alone” value in the series on blood glucose (co-administered with Humulin insulin) is reported as “appeared to reduce levels even faster”.

Turning to Humalog ® alone, in series [2] (Dosing Sequence 1), the “GIR AUC 0-60 min” value was determined as 1910 min * mL/hr, the “GIR AUC 0-120 min” value was found to be 9860 min * mL/hr, the “GIR AUC 0-180 min” value came to 20700 min * mL/hr and the “GIR AUC 0-240 min” value is 32580 min * mL/hr. In addition, in series [2] (Dosing Sequence 1), the “GIR AUC 0-360 min” value was 51650 min * mL/hr and the tmax was determined as 185. Further, in series [2] (Dosing Sequence 2), the “GIR AUC 0-60 min” value was found to be 2260 min * mL/hr, the “GIR AUC 0-120 min” value turned out to be 9670 min * mL/hr, the “GIR AUC 0-180 min” value came out at 19220 min * mL/hr and the “GIR AUC 0-240 min” value is reported as 29120 min * mL/hr. For the same molecule, in series [2] (Dosing Sequence 2), the “GIR AUC 0-360 min” value is listed as 44730 min * mL/hr and the tmax amounted to 200. Besides, in series [2] (Dosing Sequence all), the “GIR AUC 0-60 min” value came out at 2080 min * mL/hr, the “GIR AUC 0-120 min” value is 9760 min * mL/hr, the “GIR AUC 0-180 min” value is on record as 19960 min * mL/hr and the “GIR AUC 0-240 min” value is on record as 30850 min * mL/hr. In addition, in series [2] (Dosing Sequence all), the “GIR AUC 0-360 min” value is 48190 min * mL/hr and the tmax is given as 193.

Insulin 20 U had a tmax in series [3] of 0.95 ± 0.7 h.

For Insulin 100 U, in series [3], the tmax was 1.07 ± 0.817 h.

“Insulin U20: Humulin R insulin diluted 1:5 with sterile diluent to 20 U/mL”: in series [3], the AUC0-15 turned out to be 80 pmol·min/L, the AUC0-30 was determined as 791 pmol·min/L, the AUClast is on record as 20,820 pmol×min/L and the tmax was determined as 0.95 h.

For “Insulin U100: Undiluted Humulin R insulin, 100 U/mL”, in series [3], the AUC0-15 came out at 20 pmol·min/L, the AUC0-30 stood at 222 pmol·min/L, the AUClast is given as 9,021 pmol×min/L and the tmax is 1.07 h.

As to “detemir: Long-lasting insulin, an analog”, in series [4], the Duration was 28 h, the Onset was 4 to 6 h and the Peak is 18 to 28 h.

For insulin glargine, in series [4], the Duration was 28 h, the Onset is 4 to 6 h and the Peak is 18 to 28 h.

Take insulin glulisine: in series [4], the Duration was 3 to 4 h and the Peak was 0.75 to 1.5 h. In series [4] (subcutaneous insulin), the Onset was 0.083 to 0.25 h.

B1: Hyal 1: Hyaluronan degrading enzyme; acid-active human hyaluronidase (protein, listed as Homo sapiens)
chain: MAAHLLPICALFLTLLDMAQGFRGPLLPNRPFTTVWNANTQWCLERHGVDVDVSVFDVVANPGQTFRGPDMTIFYSSQLGTYPYYTPTGEPVFGGLPQNASLIAHLARTFQDILAAIPAPDFSGLAVIDWEAWRPRWAFNWDTKDIYRQRSRALVQAQHPDWPAPQVEAVAQDQFQGAARAWMAGTLQLGRALRPRGLWGFYGFPDCYNYDFLSPNYTGQCPSGIRAQNDQLGWLWGQSRALYPSIYMPAVLEGTGKSQMYVQHRVAEAFRVAVAAGDPNLPVLPYVQIFYDTTNHFLPLDELEHSLGESAAQGAAGVVLWVSWENTRTKESCQAIKEYMDTTLGPFILNVTSGALLCSQALCSGHGRCVRRTSHPKALLLLNPASFSIQLTPGGGPLSLRGALSLEDQAQMAVEFKCRCYPGWQAPWCERKSMW
modifications: Hyaluronidase-1 [Precursor]
For the molecule B1, the “increase in dye dispersion area compared to buffer only” value in series [1] is given as “no statistically significant increase”.

B2: Hyal I (protein, UniProt Q12794 22-435, looked up)
Hyaluronidase-1: FRGPLLPNRPFTTVWNANTQWCLERHGVDVDVSVFDVVANPGQTFRGPDMTIFYSSQLGTYPYYTPTGEPVFGGLPQNASLIAHLARTFQDILAAIPAPDFSGLAVIDWEAWRPRWAFNWDTKDIYRQRSRALVQAQHPDWPAPQVEAVAQDQFQGAARAWMAGTLQLGRALRPRGLWGFYGFPDCYNYDFLSPNYTGQCPSGIRAQNDQLGWLWGQSRALYPSIYMPAVLEGTGKSQMYVQHRVAEAFRVAVAAGDPNLPVLPYVQIFYDTTNHFLPLDELEHSLGESAAQGAAGVVLWVSWENTRTKESCQAIKEYMDTTLGPFILNVTSGALLCSQALCSGHGRCVRRTSHPKALLLLNPASFSIQLTPGGGPLSLRGALSLEDQAQMAVEFKCRCYPGWQAPWCERKSMW
For B2, the “Dye Dispersion Areas” value in series [1] (5 min post injection) is given as 36.27 mm^2; in series [1] (10 min post injection), 39.60 mm^2; in series [1] (15 min post injection) it was 46.41 mm^2; in series [1] (20 min post injection), 48.21 mm^2; in series [1] ([…] post injection), 31.53 mm^2. In addition, the “Blood Glucose Level” value in the series on blood glucose (0 min (prior to injection)) is on record as 155.67 mg/dL; in the series on blood glucose (setting [5]), 201.33 mg/dL; in the series on blood glucose (setting [6]) it was 144.33 mg/dL; in the series on blood glucose (setting [7]), 77.00 mg/dL; in the series on blood glucose (setting [8]) it was 52.67 mg/dL.
